In patent publication US20260248784A1, “BTK Degrader and Use Thereof” (JIANGSU VCARE PHARMATECH CO., LTD., priority 2023, published 2026):

What was measured:
mino cells = assay: Activity test in Mino cells (CCK8 proliferation inhibition); type: cell-based; conditions: Homo sapiens, 72 h, 3 days, read-out: Cell inhibition IC50
Experimental: Cell culture: mino cells (culture conditions: RPMI1640 medium+15% FBS, 37° C., 5% CO2). Cell plating: The cells subcultured into the logarithmic growth phase were collected and transferred into a centrifuge tube, and centrifuged at 800 rpm for 5 min. The cells were resuspended in complete medium and counted. The cells were diluted and adjusted to a final concentration of 200000 cells/mL. The cells were then seeded into a 96-well plate with 100 μL per well. Cell administration: Each group of drug solutions was added into the 96-well plate, 100 μL per well, n=3 for each drug concentration. Meanwhile, negative wells (n=6) and blank wells (n=3) were set up. The 96-well plate was incubated in the incubator for further 3 days. CCK8 reagent was added to the 96-well plate, 20 μL per well, and then the plate was placed in the incubator for further 4 h. The absorbance of the solution was measured at a wavelength of 450 nm using an enzyme reader. The proliferation inhibition rate was calculated and the half inhibitory concentration IC50 value was calculated.

PK test in mice = type: in vivo
Experimental: Mice were weighed and dosed, and about 50 μL of whole blood was collected from the orbital venous plexus at 5 min, 0.25 h, 0.5 h, 1 h, 2 h, 4 h, 6 h, 8 h, and 24 h after administration, using EDTA-K2 as anticoagulant. The blood samples were centrifuged at 4000 rpm for 10 min at 4° C., and 20 μL of the supernatant plasma sample was taken into an EP tube and immediately stored in a −80° C. refrigerator until analysis. 10 μL of the plasma sample was transferred to a 96-well plate and 250 μL of acetonitrile (containing internal standard) was added to precipitate proteins. The samples were centrifuged at 4000 rpm/min for 20 min in a 4° C. centrifuge. The supernatant was transferred and injected into LC MS/MS to detect the drug concentration. The data were processed by Thermo LC Quan software, and the standard curve was established using the internal standard method, with the theoretical standard curve concentration as the abscissa and the peak area ratio as the ordinate (test compound peak area/internal standard peak area). Sample concentrations were calculated using the standard curve. The pharmacokinetic parameters were calculated using WinNonlin 8.2 software.

[1] = test system: REC-1 (BTK C481S) cell xenograft; assay: Activity test in REC-1 (BTK C481S) cell xenograft model; type: in vivo, BALB/c-Nude mice; conditions: REC-1 (BTK C481S) xenograft; for Tumor weight: Mean ± SEM
Experimental: REC-1 (BTK C481S) cell culture (culture conditions: RPMI1640 medium+10% FBS, 37° C., 5% CO2). The cells subcultured into the logarithmic growth phase were collected and transferred into a centrifuge tube, and centrifuged at 1300 rpm for 3 min. On the day of inoculation, the cell density was adjusted to 5*10^7 cells/mL.
Cell inoculation: The inoculation site was selected at the right shoulder blade of the experimental animal, and the inoculation density was 5*10^6 cells+matrix gel/200 μL/animal.
Experimental animals: BALB/c-Nude, female, 6-8 W.
Grouped administration: When the average tumor volume reached 80-120 mm^3, the animals were randomly grouped according to tumor volume, with the coefficient of variation (CV) of tumor volumes not exceeding ⅓ of the mean volume. The day of grouping was defined as D0, and the administration began on the day of grouping. The body weight of the mice was measured before administration, and the administration was based on the body weight on that day.
Experimental observation and data collection: After cell inoculation, the effect of the tumor on the normal behavior of the animals was routinely monitored every week. Specific contents include the activity, food and water intake, weight gain or loss, eyes, fur and other abnormalities of the experimental animals. After the start of administration, the mice were weighed and dosed daily, and tumor volume was measured twice a week. The tumor volume was calculated as follows: tumor volume (mm^3)=0.52×tumor long diameter (mm)×tumor short diameter (mm)^2. At the end of the experiment, the following indicators were analyzed: tumor growth curve, mouse body weight curve, tumor weight, uniform photography of the excised tumors arranged according to groups, and calculation of tumor volume inhibition rate (TGI).
TGITV (Relative tumor volume inhibition rate) calculation formula:
[formula] • Vnt: Tumor volume of the mouse numbered n on day t; • Vn0: Tumor volume of the mouse numbered n on day 0; • RTVn: Relative tumor volume of the mouse numbered n on day t; • mean RTVtreat: RTV mean of the administration group; • mean RTVvehicle: RTV mean of the Vehicle group; • The experimental results such as tumor volume and mouse body weight of each group of animals are expressed as mean±standard error of the mean (Mean±SEM). T test was used for comparison between the two groups. One-way ANOVA was used for comparisons among three or more groups.

Mino cell xenograft = assay: Activity test in Mino cell xenograft model; type: in vivo, NOD SCID mice; conditions: 30 mg/kg

- Bioavialibility (PK test in mice; PO 20 mg/kg vs IV 5 mg/kg): 51.8%
- AUC(0-inf) (PK test in mice; mouse, IV 5 mg/kg, plasma): 44500 ± 4610 ng·h/mL
- AUC(0-t) (PK test in mice; mouse, IV 5 mg/kg, plasma): 42800 ± 5760 ng·h/mL
- MRT (PK test in mice; mouse, IV 5 mg/kg, plasma): 5.25 ± 0.17 h
- half-life (PK test in mice; mouse, IV 5 mg/kg, plasma): 5.35 ± 1.61 h
- AUC(0-inf) (PK test in mice; mouse, PO 20 mg/kg, plasma): 92200 ± 33200 ng·h/mL
- AUC(0-t) (PK test in mice; mouse, PO 20 mg/kg, plasma): 83500 ± 22200 ng·h/mL
- Cmax (PK test in mice; mouse, PO 20 mg/kg, plasma): 8950 ± 339 ng/mL
- MRT (PK test in mice; mouse, PO 20 mg/kg, plasma): 6.46 ± 1.4 h
- half-life (PK test in mice; mouse, PO 20 mg/kg, plasma): 6.32 ± 3.49 h
Structure (SMILES): COc1ccc(F)cc1C(=O)NCc1ccc(-c2nn(-c3ccc(N4CCN(CC5CCN(c6ccc(N7CCC(=O)NC7=O)c(C)c6)CC5)CC4)nc3)c3ncnc(N)c23)cc1 [Compound I-2, N-(4-(4-amino-1-(6-(4-((1-(4-(2,4-dioxotetrahydropyrimidin-1(2H)-yl)-3-methylphenyl)piperidin-4-yl)methyl)piperazin-1-yl)pyridin-3-yl)-1H-pyrazolo[3,4-d]pyrimidin-3-yl)benzyl)-5-fluoro-2-methoxybenzamide]
- IC50 (mino cells): 14 nM
- T/C (Tweight/Cweight) ([1]; 15 mg/kg): 11.93%
- Tumor weight ([1]; 15 mg/kg): 0.345 ± 0.082 g
- T/C (Tweight/Cweight) ([1]; 30 mg/kg): 12.76%
- Tumor weight ([1]; 30 mg/kg): 0.369 ± 0.043 g
- TGITV (Relative tumor volume inhibition rate) (Mino cell xenograft): 80.75%
- Tumor volume (Mino cell xenograft; end of experiment, Mean ± SD): 955.81 ± 343.68 mm^3
